Counter-ions that a name gives are not always drawn. Like-named read-outs stand apart in the source and are kept apart here.
How the values were obtained:
Assay type in all cases: cell-based, human
cancer cell lines = test: Cell viability analysis (WST-1) on cancer cell lines; conditions: drug 10 μM, 72 hours, WST-1; Table 3
[1] = tested on: HI650 (Lung Adenocarcinoma); test: Cell viability analysis, lung cancer HI650; conditions: Homo sapiens, NCI-H1650, 72 h
[2] = tested on: A549 (Lung Adenocarcinoma); test: Cell viability analysis, lung cancer A549; conditions: Homo sapiens, A549, 72 h
[3] = tested on: AGS (Gastric Adenocarcinoma); test: Cell viability analysis, gastric cancer AGS; conditions: Homo sapiens, 72 h
[4] = tested on: MKN-45 (Gastric Adenocarcinoma); test: Cell viability analysis, gastric cancer MKN-45; conditions: Homo sapiens, MKN-45, 72 h
[5] = tested on: HepG2 (Hepatocellular Carcinoma); test: Cell viability analysis, hepatic cancer HepG2; conditions: Homo sapiens, HepG2, 72 h
[6] = tested on: LoVo (Colorectal Adenocarcinoma); test: Cell viability analysis, colon cancer LoVo; conditions: Homo sapiens, LoVo, 72 h, read-out: cell viability (survival rate), LoVo, drug 10 μM, 72 hours, WST-1, OD450 nm
[7] = tested on: A375 (Amelanotic Melanoma); test: Cell viability analysis, skin cancer A375; conditions: Homo sapiens, A-375, 72 h
[8] = tested on: HeLa (Cervix Adenocarcinoma); test: Cell viability analysis, cervical cancer HeLa; conditions: Homo sapiens, HeLa, 72 h
[9] = tested on: PC3 (p53−) (Prostate Adenocarcinoma); test: Cell viability analysis, prostate cancer PC3; conditions: Homo sapiens, 72 h
[10] = tested on: TSGH-8301 (Urinary Bladder Carcinoma); test: Cell viability analysis, bladder cancer TSGH-8301; conditions: Homo sapiens, 72 h
[11] = tested on: MCF7 (Mammary Gland, Adenocarcinoma); test: Cell viability analysis, breast cancer MCF7; conditions: Homo sapiens, MCF7, 72 h
[12] = tested on: HL-60 (Acute Promyelocytic Leukemia); test: Cell viability analysis, leukemia HL-60; conditions: Homo sapiens, HL-60, 72 h
[13] = read-out: cell viability (survival rate), H1650, drug 10 μM, 72 hours, WST-1, OD450 nm
[14] = read-out: cell viability (survival rate), A549, drug 10 μM, 72 hours, WST-1, OD450 nm
[15] = read-out: cell viability (survival rate), AGS, drug 10 μM, 72 hours, WST-1, OD450 nm
[16] = read-out: cell viability (survival rate), MKN-45, drug 10 μM, 72 hours, WST-1, OD450 nm
[17] = read-out: cell viability (survival rate), HepG2, drug 10 μM, 72 hours, WST-1, OD450 nm
[18] = read-out: cell viability (survival rate), A375, drug 10 μM, 72 hours, WST-1, OD450 nm
[19] = read-out: cell viability (survival rate), HeLa, drug 10 μM, 72 hours, WST-1, OD450 nm
[20] = read-out: cell viability (survival rate), PC3, drug 10 μM, 72 hours, WST-1, OD450 nm
[21] = read-out: cell viability (survival rate), TSGH, drug 10 μM, 72 hours, WST-1, OD450 nm
[22] = read-out: cell viability (survival rate), MCF7, drug 10 μM, 72 hours, WST-1, OD450 nm
[23] = read-out: cell viability (survival rate), HL-60, drug 10 μM, 72 hours, WST-1, OD450 nm
[24] = drug 10 μM, 72 hours, WST-1, OD450 nm, read-out: cell viability (survival rate), H1650
[25] = drug 10 μM, 72 hours, WST-1, OD450 nm, read-out: cell viability (survival rate), A549
[26] = drug 10 μM, 72 hours, WST-1, OD450 nm, read-out: cell viability (survival rate), AGS
[27] = drug 10 μM, 72 hours, WST-1, OD450 nm, read-out: cell viability (survival rate), MKN-45
[28] = drug 10 μM, 72 hours, WST-1, OD450 nm, read-out: cell viability (survival rate), HepG2
[29] = drug 10 μM, 72 hours, WST-1, OD450 nm, read-out: cell viability (survival rate), A375
[30] = drug 10 μM, 72 hours, WST-1, OD450 nm, read-out: cell viability (survival rate), HeLa
[31] = drug 10 μM, 72 hours, WST-1, OD450 nm, read-out: cell viability (survival rate), PC3
[32] = drug 10 μM, 72 hours, WST-1, OD450 nm, read-out: cell viability (survival rate), TSGH
[33] = drug 10 μM, 72 hours, WST-1, OD450 nm, read-out: cell viability (survival rate), MCF7
[34] = drug 10 μM, 72 hours, WST-1, OD450 nm, read-out: cell viability (survival rate), HL-60

SMILES | inhibition effect on different cancer cell lines (cancer cell lines) | viability at 10 µM [1, 13] | viability at 10 µM [2, 14] | viability at 10 µM [3, 15] | viability at 10 µM [4, 16] | viability at 10 µM [5, 17] | viability at 10 µM [6] | viability at 10 µM [7, 18] | viability at 10 µM [8, 19] | viability at 10 µM [9, 20] | viability at 10 µM [10, 21] | viability at 10 µM [11, 22] | viability at 10 µM [12, 23] | viability at 10 µM [1, 24] | viability at 10 µM [2, 25] | viability at 10 µM [3, 26] | viability at 10 µM [4, 27] | viability at 10 µM [5, 28] | viability at 10 µM [7, 29] | viability at 10 µM [8, 30] | other results
CCOC(=O)n1ccn(C)c1=S [Carbimazole] | significant inhibition effect | 80.9% | 73.9% | 114% | 131% | 97.2% | 75% | 65.1% | 90.3% | 95.6% | 117% | 102% | 80.1% |  |  |  |  |  |  |  | 
CC1(C)O[C@@H]2C[C@H]3[C@@H]4C[C@H](F)C5=CC(=O)C=C[C@]5(C)[C@@]4(F)[C@@H](O)C[C@]3(C)[C@]2(C(=O)CO)O1 [Fluocinolone acetonide (Flucort-N), Fluocinolone acetonide] | significant inhibition effect |  |  |  |  |  | 52.3% |  |  |  |  |  |  | 58.4% | 52.5% | 30% | 34.9% | 74.5% | 45.8% | 46% | viability at 10 µM [9, 31]: 40.7%; viability at 10 µM [10, 32]: 38.3%; viability at 10 µM [11, 33]: 54.2%; viability at 10 µM [12, 34]: 116%
O=C(O)c1cn(-c2ccc(F)cc2)c2cc(N3CCNCC3)c(F)cc2c1=O [Sarafloxacin HCl] | significant inhibition effect |  |  |  |  |  | 106% |  |  |  |  |  |  | 58.9% | 98.6% | 88% | 75.3% | 91.1% | 97.8% | 81% | viability at 10 µM [9, 31]: 80.9%; viability at 10 µM [10, 32]: 122%; viability at 10 µM [11, 33]: 107%; viability at 10 µM [12, 34]: 112%
C[C@@H]1CC[C@H]2[C@@H](C)C(=O)O[C@@H]3O[C@@]4(C)CC[C@@H]1[C@]32OO4 [Artemisinin] | significant inhibition effect | 106% | 98.7% | 87.7% | 117% | 116% | 104% | 88.9% | 120% | 92.5% | 63.6% | 151% | 146% |  |  |  |  |  |  |  | 
O=C(NC(Cc1cc(=O)[nH]c2ccccc12)C(=O)O)c1ccc(Cl)cc1 (centres unmarked) [Rebamipide] | significant inhibition effect | 80.4% | 28% | 89.6% | 97.4% | 95.3% | 84.9% | 81.1% | 77.4% | 82.2% | 105% | 39.1% | 100% |  |  |  |  |  |  |  | 
